Columns and labels:
ENR+CD organoids = assay: Primary screen: ATP (CellTiter-Glo 3D, CTG) cell number/viability, 2.5-D 384-well ENR+CD organoids; settings: primary screen; for Z.CTG: standard z score; for Dose.FC.CTG: FC vs plate median;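 for all read-outs here: compounds given at plating and again on day 3 over a 6-day differentiation from ENR+CV stem-cell-enriched precursors, ATP measured on day 6, plate median as control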
[1] = system: ENR+CD organoids (ISC to Paneth cell differentiation); assay: Primary screen: CCh-stimulated lysozyme secretion LYZ.S, 2.5-D 384-well ENR+CD organoid differentiation; format: cell-based, mouse; settings: primary screen, FC vs plate median
Excerpt: (§1) High-throughput screening.

[2] = system: ENR+CD organoids (ISC to Paneth cell differentiation); assay: Primary screen: basal (non-stimulated) lysozyme secretion LYZ.NS, 2.5-D 384-well ENR+CD organoid differentiation; format: cell-based, mouse; settings: primary screen; for Z.LYZ.NS: standard z score; for Dose.FC.LYZ.NS: FC vs plate median
Excerpt: as §1

`C#Cc1cccc(Nc2ncnc3cc(OCCOC)c(OCCO)cc23)c1` [OSI-420] was tested, and the Z.CTG (ENR+CD organoids; dose 0.08 uM) was 0.254, the Z.CTG (ENR+CD organoids; dose 0.40 uM) was −0.311 and the Z.CTG (ENR+CD organoids; dose 2.00 uM) was −3.016. For the same molecule, the Z.CTG (ENR+CD organoids; dose 10.00 uM) was −2.627, the Dose.FC.CTG (ENR+CD organoids; dose 0.08 uM) was 0.106 log2 fold change and the Dose.FC.CTG (ENR+CD organoids; dose 0.40 uM) was −0.130 log2 fold change. For the same molecule, the Dose.FC.CTG (ENR+CD organoids; dose 2.00 uM) was −1.263 log2 fold change, the Dose.FC.CTG (ENR+CD organoids; dose 10.00 uM) was −1.100 log2 fold change and the Dose.FC.LYZ.S ([1]; dose 0.08 uM) was 0.059 log2 fold change. It also gave a Dose.FC.LYZ.S ([1]; dose 0.40 uM) of −0.221 log2 fold change, a Dose.FC.LYZ.S ([1]; dose 2.00 uM) of −0.381 log2 fold change and a Dose.FC.LYZ.S ([1]; dose 10.00 uM) of −0.374 log2 fold change. It also gave a Z.LYZ.NS ([2]; dose 0.08 uM) of 1.002, a Z.LYZ.NS ([2]; dose 0.40 uM) of −1.948 and a Z.LYZ.NS ([2]; dose 2.00 uM) of −2.498. For the same molecule, the Z.LYZ.NS ([2]; dose 10.00 uM) was −2.833, the Dose.FC.LYZ.NS ([2]; dose 0.08 uM) was 0.115 log2 fold change and the Dose.FC.LYZ.NS ([2]; dose 0.40 uM) was −0.224 log2 fold change. For the same molecule, the Dose.FC.LYZ.NS ([2]; dose 2.00 uM) was −0.287 log2 fold change and the Dose.FC.LYZ.NS ([2]; dose 10.00 uM) was −0.325 log2 fold change.
Molecule `C[C@]1(O)C[C@@H](c2nc(-c3ccc4ccc(-c5ccccc5)nc4c3)c3c(N)nccn32)C1` [OSI-906 (Linsitinib)] has a Z.CTG (ENR+CD organoids; dose 0.08 uM) of −0.775, a Z.CTG (ENR+CD organoids; dose 0.40 uM) of −0.377 and a Z.CTG (ENR+CD organoids; dose 2.00 uM) of −0.661. It also gave a Z.CTG (ENR+CD organoids; dose 10.00 uM) of −0.934, a Dose.FC.CTG (ENR+CD organoids; dose 0.08 uM) of −0.324 log2 fold change and a Dose.FC.CTG (ENR+CD organoids; dose 0.40 uM) of −0.158 log2 fold change. It also gave a Dose.FC.CTG (ENR+CD organoids; dose 2.00 uM) of −0.277 log2 fold change, a Dose.FC.CTG (ENR+CD organoids; dose 10.00 uM) of −0.391 log2 fold change and a Dose.FC.LYZ.S ([1]; dose 0.08 uM) of −0.026 log2 fold change. For the same molecule, the Dose.FC.LYZ.S ([1]; dose 0.40 uM) was −0.119 log2 fold change, the Dose.FC.LYZ.S ([1]; dose 2.00 uM) was −0.288 log2 fold change and the Dose.FC.LYZ.S ([1]; dose 10.00 uM) was −0.328 log2 fold change. For the same molecule, the Z.LYZ.NS ([2]; dose 0.08 uM) was 0.110, the Z.LYZ.NS ([2]; dose 0.40 uM) was −0.806 and the Z.LYZ.NS ([2]; dose 2.00 uM) was −1.882. The Z.LYZ.NS ([2]; dose 10.00 uM) was −1.996, the Dose.FC.LYZ.NS ([2]; dose 0.08 uM) was 0.013 log2 fold change and the Dose.FC.LYZ.NS ([2]; dose 0.40 uM) was −0.093 log2 fold change. The Dose.FC.LYZ.NS ([2]; dose 2.00 uM) was −0.216 log2 fold change and the Dose.FC.LYZ.NS ([2]; dose 10.00 uM) was −0.229 log2 fold change.
Work on `NCC(=O)Nc1ccc(-n2nc(C(F)(F)F)cc2-c2ccc3c(ccc4ccccc43)c2)cc1` [OSU-03012 (AR-12)] yielded a Z.CTG (ENR+CD organoids; dose 0.08 uM) of 0.491, a Z.CTG (ENR+CD organoids; dose 0.40 uM) of 0.272 and a Z.CTG (ENR+CD organoids; dose 2.00 uM) of 0.556. The Z.CTG (ENR+CD organoids; dose 10.00 uM) was 0.185, the Dose.FC.CTG (ENR+CD organoids; dose 0.08 uM) was 0.205 log2 fold change and the Dose.FC.CTG (ENR+CD organoids; dose 0.40 uM) was 0.114 log2 fold change. It also gave a Dose.FC.CTG (ENR+CD organoids; dose 2.00 uM) of 0.233 log2 fold change, a Dose.FC.CTG (ENR+CD organoids; dose 10.00 uM) of 0.078 log2 fold change and a Dose.FC.LYZ.S ([1]; dose 0.08 uM) of 0.126 log2 fold change. The Dose.FC.LYZ.S ([1]; dose 0.40 uM) was 0.113 log2 fold change, the Dose.FC.LYZ.S ([1]; dose 2.00 uM) was 0.060 log2 fold change and the Dose.FC.LYZ.S ([1]; dose 10.00 uM) was −0.128 log2 fold change. It also gave a Z.LYZ.NS ([2]; dose 0.08 uM) of 0.755, a Z.LYZ.NS ([2]; dose 0.40 uM) of 0.285 and a Z.LYZ.NS ([2]; dose 2.00 uM) of 0.460. For the same molecule, the Z.LYZ.NS ([2]; dose 10.00 uM) was −0.423, the Dose.FC.LYZ.NS ([2]; dose 0.08 uM) was 0.087 log2 fold change and the Dose.FC.LYZ.NS ([2]; dose 0.40 uM) was 0.033 log2 fold change. It also gave a Dose.FC.LYZ.NS ([2]; dose 2.00 uM) of 0.053 log2 fold change and a Dose.FC.LYZ.NS ([2]; dose 10.00 uM) of −0.049 log2 fold change.
`Cc1sc2c(c1C)C(c1ccc(Cl)cc1)=N[C@@H](CC(=O)Nc1ccc(O)cc1)c1nnc(C)n1-2` [OTX015] showed a Dose.FC.CTG (ENR+CD organoids; dose 0.08 uM) of −0.038 log2 fold change, a Dose.FC.CTG (ENR+CD organoids; dose 0.40 uM) of −0.398 log2 fold change and a Dose.FC.CTG (ENR+CD organoids; dose 2.00 uM) of −0.686 log2 fold change. For the same molecule, the Dose.FC.CTG (ENR+CD organoids; dose 10.00 uM) was −0.908 log2 fold change, the Dose.FC.LYZ.S ([1]; dose 0.08 uM) was −0.279 log2 fold change and the Dose.FC.LYZ.S ([1]; dose 0.40 uM) was −0.350 log2 fold change. For the same molecule, the Dose.FC.LYZ.S ([1]; dose 2.00 uM) was −0.350 log2 fold change, the Dose.FC.LYZ.S ([1]; dose 10.00 uM) was −0.362 log2 fold change and the Z.LYZ.NS ([2]; dose 0.08 uM) was −1.726. For the same molecule, the Z.LYZ.NS ([2]; dose 0.40 uM) was −2.317, the Z.LYZ.NS ([2]; dose 2.00 uM) was −2.082 and the Z.LYZ.NS ([2]; dose 10.00 uM) was −2.225. The Dose.FC.LYZ.NS ([2]; dose 0.08 uM) was −0.198 log2 fold change, the Dose.FC.LYZ.NS ([2]; dose 0.40 uM) was −0.266 log2 fold change and the Dose.FC.LYZ.NS ([2]; dose 2.00 uM) was −0.239 log2 fold change. For the same molecule, the Dose.FC.LYZ.NS ([2]; dose 10.00 uM) was −0.256 log2 fold change.
With `CC(C)(F)C[C@H](N[C@@H](c1ccc(-c2ccc(S(C)(=O)=O)cc2)cc1)C(F)(F)F)C(=O)NC1(C#N)CC1` [Odanacatib (MK-0822)] the Z.CTG (ENR+CD organoids; dose 0.08 uM) was 0.285, the Z.CTG (ENR+CD organoids; dose 0.40 uM) was 0.496 and the Z.CTG (ENR+CD organoids; dose 2.00 uM) was −0.020. For the same molecule, the Z.CTG (ENR+CD organoids; dose 10.00 uM) was 0.015, the Dose.FC.CTG (ENR+CD organoids; dose 0.08 uM) was 0.119 log2 fold change and the Dose.FC.CTG (ENR+CD organoids; dose 0.40 uM) was 0.208 log2 fold change. It also gave a Dose.FC.CTG (ENR+CD organoids; dose 2.00 uM) of −0.008 log2 fold change, a Dose.FC.CTG (ENR+CD organoids; dose 10.00 uM) of 0.006 log2 fold change and a Dose.FC.LYZ.S ([1]; dose 0.08 uM) of 0.091 log2 fold change. It also gave a Dose.FC.LYZ.S ([1]; dose 0.40 uM) of 0.170 log2 fold change, a Dose.FC.LYZ.S ([1]; dose 2.00 uM) of 0.036 log2 fold change and a Dose.FC.LYZ.S ([1]; dose 10.00 uM) of −0.074 log2 fold change. The Z.LYZ.NS ([2]; dose 0.08 uM) was 0.752, the Z.LYZ.NS ([2]; dose 0.40 uM) was 1.409 and the Z.LYZ.NS ([2]; dose 2.00 uM) was 0.212. It also gave a Z.LYZ.NS ([2]; dose 10.00 uM) of −0.307, a Dose.FC.LYZ.NS ([2]; dose 0.08 uM) of 0.086 log2 fold change and a Dose.FC.LYZ.NS ([2]; dose 0.40 uM) of 0.162 log2 fold change. It also gave a Dose.FC.LYZ.NS ([2]; dose 2.00 uM) of 0.024 log2 fold change and a Dose.FC.LYZ.NS ([2]; dose 10.00 uM) of −0.035 log2 fold change.
`CC[C@@H]1/C=C/C=C/C[C@H](C)[C@H](O)[C@](C)(O)C(=O)[C@H](C)[C@@H](O)[C@H](C)C(=O)[C@H](C)[C@@H](O)[C@H](C)/C=C/C(=O)O[C@H]2[C@@H](C)[C@@H](CC1)O[C@@]1(CC[C@@H](C)[C@@H](C[C@H](C)O)O1)[C@@H]2C` [Oligomycin A] showed a Z.CTG (ENR+CD organoids; dose 0.08 uM) of −1.581, a Z.CTG (ENR+CD organoids; dose 0.40 uM) of −1.685 and a Z.CTG (ENR+CD organoids; dose 2.00 uM) of −2.261. It also gave a Z.CTG (ENR+CD organoids; dose 10.00 uM) of −2.972, a Dose.FC.CTG (ENR+CD organoids; dose 0.08 uM) of −0.662 log2 fold change and a Dose.FC.CTG (ENR+CD organoids; dose 0.40 uM) of −0.706 log2 fold change. The Dose.FC.CTG (ENR+CD organoids; dose 2.00 uM) was −0.946 log2 fold change, the Dose.FC.CTG (ENR+CD organoids; dose 10.00 uM) was −1.244 log2 fold change and the Dose.FC.LYZ.S ([1]; dose 0.08 uM) was −0.243 log2 fold change. For the same molecule, the Dose.FC.LYZ.S ([1]; dose 0.40 uM) was −0.274 log2 fold change, the Dose.FC.LYZ.S ([1]; dose 2.00 uM) was −0.269 log2 fold change and the Dose.FC.LYZ.S ([1]; dose 10.00 uM) was −0.288 log2 fold change. It also gave a Z.LYZ.NS ([2]; dose 0.08 uM) of −1.778, a Z.LYZ.NS ([2]; dose 0.40 uM) of −2.013 and a Z.LYZ.NS ([2]; dose 2.00 uM) of −1.857. The Z.LYZ.NS ([2]; dose 10.00 uM) was −1.943, the Dose.FC.LYZ.NS ([2]; dose 0.08 uM) was −0.204 log2 fold change and the Dose.FC.LYZ.NS ([2]; dose 0.40 uM) was −0.231 log2 fold change. It also gave a Dose.FC.LYZ.NS ([2]; dose 2.00 uM) of −0.213 log2 fold change and a Dose.FC.LYZ.NS ([2]; dose 10.00 uM) of −0.223 log2 fold change.
